The source of these data is patent publication US12012383B2, “Compositions and methods for inhibiting dihydroorotate dehydrogenase” (Clear Creek Bio, Inc., priority 2018, dated 2024).

The test system of one series is solid malignancies. Conditions: 43 patients; patient with papillary carcinoma of the thyroid (Schwartsmann); cited from earlier work.
A short description of series [1]: Adverse events in subjects receiving brequinar intravenously once a week (Example 2). The settings on record: 209 subjects, i.v. once a week, median dose 1200 mg/m^2. It is filed as in vivo, human.
For series [2], the system named is acute myeloid leukemia (AML). The series is described as follows: Clinical response of patients with AML to brequinar-containing composition (Examples 9-11). It is filed as in vivo, human.
Series [3] has as its target DHODH (Homo sapiens, UniProt Q02127). The settings on record: for DHO plasma level threshold achieved: after a dose.
The subject of a further series is mouse model of AML. Conditions: daily administration of high doses; cited from earlier work.
In another series the test system is advanced malignancies. Conditions: cited from earlier work.
Series [4] has as its target DHODH (Mus musculus, UniProt O35435). The series is described as follows: Plasma DHO in mice after brequinar 50 mg/kg (FIG. 6). The settings on record: at about 84 hours, FIG. 6 dashed line.
Setting [5] is: Example 9, first patient with AML, threshold 1,600 ng/mL.
Where [6] appears, read: Example 10, second patient with AML, threshold 2,900 ng/mL.
[7] abbreviates: Example 11, patient with AML, threshold 133 ng/mL.

Read-outs that look alike come from different tables or passages of the source. Some results are limits rather than exact numbers.

Sequence of DHODH (Homo sapiens, UniProt Q02127) (Q02127 whole entry): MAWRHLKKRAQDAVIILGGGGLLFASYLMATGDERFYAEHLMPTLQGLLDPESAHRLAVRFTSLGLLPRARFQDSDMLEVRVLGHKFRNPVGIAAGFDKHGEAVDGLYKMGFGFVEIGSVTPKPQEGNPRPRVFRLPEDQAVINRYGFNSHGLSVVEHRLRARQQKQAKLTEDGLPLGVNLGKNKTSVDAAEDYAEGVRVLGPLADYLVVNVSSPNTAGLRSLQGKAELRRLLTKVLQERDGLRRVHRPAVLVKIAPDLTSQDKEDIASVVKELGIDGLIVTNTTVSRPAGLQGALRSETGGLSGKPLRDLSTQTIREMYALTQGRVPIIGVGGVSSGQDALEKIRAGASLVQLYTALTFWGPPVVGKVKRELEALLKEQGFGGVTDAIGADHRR
Sequence of DHODH (Mus musculus, UniProt O35435) (O35435 whole entry): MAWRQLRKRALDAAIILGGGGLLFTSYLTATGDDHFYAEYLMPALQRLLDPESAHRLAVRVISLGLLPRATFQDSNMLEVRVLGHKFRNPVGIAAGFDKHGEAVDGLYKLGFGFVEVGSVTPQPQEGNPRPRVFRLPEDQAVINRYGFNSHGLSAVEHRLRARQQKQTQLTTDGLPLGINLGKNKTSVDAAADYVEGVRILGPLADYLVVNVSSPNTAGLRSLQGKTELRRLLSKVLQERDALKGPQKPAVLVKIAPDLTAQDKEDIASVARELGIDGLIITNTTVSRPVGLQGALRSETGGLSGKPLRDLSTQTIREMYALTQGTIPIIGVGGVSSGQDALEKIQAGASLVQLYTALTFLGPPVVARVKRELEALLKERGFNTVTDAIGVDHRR

As to `Cc1c(-c2ccc(-c3ccccc3F)cc2)nc2ccc(F)cc2c1C(=O)O` [Brequinar sodium], the tumor response observed entry in the series with solid malignancies is “One mixed response”.

As to `Cc1c(-c2ccc(-c3ccccc3F)cc2)nc2ccc(F)cc2c1C(=O)O` [brequinar, 6-fluoro-2-(2′-fluoro-1,1′ biphenyl-4-yl)-3-methyl-4-quinoline carboxylic acid], in series [1], the “Dyspepsia: No. of Patients Experiencing the AE, Max Grade 1” value is reported as 6. Further, the clinical response result in series [2] (Example 9, first patient with AML, bone marrow blast count, extramedullary hematopoiesis, differentiation of peripheral blasts) is given as “positive response”; in series [2] (Example 10, second patient with AML, peripheral blasts, absolute neutrophil count, differentiation of peripheral blasts), “positive response”; in series [2] (Example 11, patient with AML, trend towards differentiation of peripheral blasts) it was “positive response”. Moreover, the “DHO plasma level threshold achieved” value on DHODH [3] (Example 9, first patient with AML) is given as ≥ 1,600 ng/mL; on DHODH [3] (Example 10, second patient with AML), ≥ 2,900 ng/mL; on DHODH [3] (Example 11, patient with AML) it was at least 133 ng/mL. The “time remained above DHO threshold” value at DHODH [3] (setting [5]), on DHODH [3] (setting [6]) and on DHODH [3] (setting [7]) was 84 h throughout. Besides, the “time to achieve DHO plasma level threshold” value on DHODH [3] (setting [5]) was “less than 24 hours”; at DHODH [3] (setting [6]) it was below 24 h; on DHODH [3] (setting [7]) it was “less than 2 hours”. Also, in the series with mouse model of AML, the “toxicity in mouse model of AML” value is “weight loss, anemia, and thrombocytopenia”. Further, the “effect of combination on individual drug pharmacokinetic parameters” value in the series on advanced malignancies (650 mg/m^2 brequinar with 75 mg/m^2 cisplatin (Burris)) is on record as “without significant modifications of individual drug pharmacokinetic parameters”. Further, the “brequinar dose that can be administered with full dose cisplatin” value in the series on advanced malignancies (brequinar days 1, 8 and 15 with 75 mg/m^2 cisplatin day 1, 28-day cycle (Burris)) is listed as 650 mg/m^2. Moreover, the “concentration of DHO remaining in the plasma” value on DHODH [4] was “about 100 ng/mL”.
